Results published in patent US7989446B2, “4-amino 5-cyanopyrimidine derivatives” (Otsuka Pharmaceutical Co., Ltd., priority 2004, dated 2011).

Columns and labels:
[1] = tested on: Intraocular Pressure in Rabbit; assay: Measuring test for intraocular pressure in rabbit; type: in vivo, Female New Zealand white rabbits; conditions: mean±standard error
Experimental: (3) Measuring Test for Intraocular Pressure in Rabbit
The test compounds were dissolved in 10 mM of phosphate buffer (pH 7.5) (hereinafter, referred to as “vehicle of ophthalmic preparation”), and they were instilled in a given concentration. In addition, the compounds insoluble in that concentration was used as a suspension. Female New Zealand white rabbits (KITAYAMA LABES Co., Ltd.) whose weights were 2.0-4.0 kg were used.
The measurement of the intraocular pressure was carried out using Pneumatonometer (Model 30 Classic, Mentor company) without anesthesia. In addition, before the measurement of the intraocular pressure, the surface anesthesia with 0.4% oxybuprocaine hydrochloride (“Benoxil” 0.4% ophthalmic solution, Santen Pharmaceutical Co., Ltd.) was carried out.
The animals whose intraocular pressure was stable before instillation were selected, and these animals were divided to every 4 animal in each one group, 50 μL of eye drops including each the test compound was administered to one-sided eye and vehicle was administered to contralateral eye as the control eye. The measurement of intraocular pressure was carried out before instillation and after 0.5, 1, 2, 3, 4 and 6 hours from instillation. The effect on the intraocular pressure was shown as the difference from pre-instillation (ΔIOP, mmHg, mean±standard error). The following Tables 14 and 15 show the results of Control Compounds A and B used as 1% suspensions which are the same as in the pharmacological test (1).
The animals were pretreated as mentioned above, and among them animals whose intraocular pressure was stable before instillation were selected, and these animals were divided to every 5 to 8 animal in each one group. Every two group was used for each of the test compounds. The test compound was administered unilaterally to the eye of the test group rabbit and the intraocular pressure was measured. The vehicle was administered unilaterally to the eye of the control group rabbit and the intraocular pressure was measured. As mentioned above, the measurement of intraocular pressure was carried out before instillation and after 0.5, 1, 2, 3, 4 and 6 hours from instillation, and the effect on the intraocular pressure was shown as the difference from pre-instillation (ΔIOP, mmHg, mean±standard error).

[2] = target: T1, adenosine A2a receptor (Human) (Homo sapiens, UniProt P29274); assay: c-AMP generating action in cell expressing adenosine A2a receptor; type: cell-based; conditions: HEK293 cell expressing human A2a; 100% = c-AMP caused by 1 μM CGS-21680; read-out: A2a Agonistic Action (EC50)
T1 construct: host or cells: HEK293
T1 sequence (P29274 whole entry): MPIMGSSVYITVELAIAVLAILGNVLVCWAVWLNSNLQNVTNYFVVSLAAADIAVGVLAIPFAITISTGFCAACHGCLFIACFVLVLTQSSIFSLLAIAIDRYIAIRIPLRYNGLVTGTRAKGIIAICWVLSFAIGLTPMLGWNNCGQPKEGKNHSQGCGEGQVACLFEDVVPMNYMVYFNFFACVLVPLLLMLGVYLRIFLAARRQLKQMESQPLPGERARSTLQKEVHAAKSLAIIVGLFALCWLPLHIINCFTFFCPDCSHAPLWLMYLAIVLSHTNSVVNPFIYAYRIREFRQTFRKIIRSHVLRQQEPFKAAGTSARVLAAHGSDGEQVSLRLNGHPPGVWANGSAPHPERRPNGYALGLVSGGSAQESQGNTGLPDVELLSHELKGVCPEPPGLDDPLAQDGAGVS
Experimental: (1) c-AMP Generating Action in Cell Expressing Adenosine A2a Receptor
The test was carried out as mentioned below with reference to the method disclosed in the reference (Klotz k. N. et al., Naunyn-Schmiedeberg's Arch. Pharmacol., (1998) 357, 1-9; Shryock J. C. et al., Molecular Pharmacology, (1998) 53, 886-893).
As to the cell, HEK293 cell expressing adenosine A2a receptor (Human) (PerkinElmer Life Sciences, Code No. RBHA2AC) was used.
As to the culture medium, Dulbecco's modified Eagles medium (DMEM) including 10% FBS (Fetal bovine serum) and 1 mM of sodium pyruvate was used.
The cell was placed on 96 well plate (1×10^5/well), and cultured overnight. After removing off the supernatant, to each well, 0.1 ml of DMEM (without FBS) containing 20 mM HEPES, 0.1 mM of IBMX (3-isobutyl-1-methylxanthine) and 2 unit/mL adenosine deaminase was added, and they were incubated at 37° C. for 30 minutes. To each well, 0.1 ml of the culture medium including the DMSO solution of the test compound in an appropriate concentration was added and they were incubated for additional 30 minutes. After removing off the supernatant, the cytolytic solution was added to quench the reaction. The amount of c-AMP in each well was measured by using the c-AMP enzyme immunoassay (EIA) system (Amersham Biosciences, Code No. RPN225).
The same assay was repeated using CGS-21680 (2-p-carboxyethyl)phenethylamino-5′-N-ethylcarboxamidoadenosine hydrochloride, (Sigma, code C141) as reference compound. The amount of resultant c-AMP in the medium, caused by 1 μM of reference compound, was defined to be 100%. A concentration of assayed compound in the medium, producing 50% c-AMP amounts, was calculated to be EC50 value.

[3] = 0.03% ophthalmic solution, rabbit, instillation, 0.5 hr after instillation, difference from pre-instillation
[4] = 0.03% ophthalmic solution, rabbit, instillation, 1 hr after instillation, difference from pre-instillation
[5] = 0.03% ophthalmic solution, rabbit, instillation, 2 hr after instillation, difference from pre-instillation
[6] = 0.03% ophthalmic solution, rabbit, instillation, 3 hr after instillation, difference from pre-instillation
[7] = 0.03% ophthalmic solution, rabbit, instillation, 4 hr after instillation, difference from pre-instillation
[8] = 0.03% ophthalmic solution, rabbit, instillation, 6 hr after instillation, difference from pre-instillation

SMILES	ΔIOP (mmHg) [1, 3] [mmHg]	ΔIOP (mmHg) [1, 4] [mmHg]	ΔIOP (mmHg) [1, 5] [mmHg]	ΔIOP (mmHg) [1, 6] [mmHg]	ΔIOP (mmHg) [1, 7] [mmHg]	ΔIOP (mmHg) [1, 8] [mmHg]	EC50 [2] [nM]	ΔIOP (mmHg) ([1]; 0.01% ophthalmic solution, test group, 0.5 hr)	ΔIOP (mmHg) ([1]; 0.01% ophthalmic solution, test group, 1 hr)	ΔIOP (mmHg) ([1]; 0.01% ophthalmic solution, test group, 2 hr)	ΔIOP (mmHg) ([1]; 0.01% ophthalmic solution, test group, 3 hr)	ΔIOP (mmHg) ([1]; 0.01% ophthalmic solution, test group, 4 hr)	ΔIOP (mmHg) ([1]; 0.01% ophthalmic solution, test group, 6 hr)
CC(=O)Nc1ccc(-c2nc(SCc3cccc(CCC(=O)NCCN(C)C)n3)nc(N)c2C#N)cc1.Cl [Example 61, 3-{6-[4-(4-acetylaminophenyl)-6-amino-5-cyanopyrimidin-2-ylsulfanylmethyl]pyridin-2-yl}-N-(2-dimethylaminoethyl)-propionamide hydrochloride]	−0.5 ± 0.4	−4.2 ± 0.6	−4.5 ± 0.7	−4.8 ± 0.7	−4.4 ± 0.7	−1.2 ± 0.8	3.4	–	–	–	–	–	–
CC(=O)Nc1ccc(-c2nc(SCc3cccc(CCC(=O)N(C)CC(C)N(C)C)n3)nc(N)c2C#N)cc1.Cl (centres unmarked) [Example 64, 3-{6-[4-(4-acetylaminophenyl)-6-amino-5-cyanopyrimidin-2-ylsulfanylmethyl]pyridin-2-yl}-N-(2-dimethylaminopropyl)-N-methylpropionamide hydrochloride]	−2.7 ± 0.7	−4.9 ± 0.5	−3.8 ± 0.8	−3.2 ± 0.9	−4.0 ± 0.7	−1.8 ± 0.4	4.3	–	–	–	–	–	–
CCN(CC)CCNC(=O)CCc1cccc(CSc2nc(N)c(C#N)c(-c3ccc(NC(C)=O)cc3)n2)n1.Cl [Example 66, 3-{6-[4-(4-acetylaminophenyl)-6-amino-5-cyanopyrimidin-2-ylsulfanylmethyl]pyridin-2-yl}-N-(2-diethylaminoethyl)propionamide hydrochloride salt]	−1.3 ± 0.9	−4.0 ± 0.6	−5.5 ± 0.7	−5.0 ± 0.5	−3.7 ± 0.5	−1.8 ± 0.5	5.2	–	–	–	–	–	–
CC(=O)Nc1ccc(-c2nc(SCc3cccc(CCC(=O)N(C)C4CCN(C)CC4)n3)nc(N)c2C#N)cc1.Cl [Example 67, 3-{6-[4-(4-acetylaminophenyl)-6-amino-5-cyanopyrimidin-2-ylsulfanylmethyl]pyridin-2-yl}-N-methyl-N-(1-methylpiperidin-4-yl)propionamide hydrochloride]	−1.1 ± 1.0	−5.3 ± 0.7	−4.6 ± 0.7	−4.6 ± 0.9	−4.2 ± 0.7	−2.0 ± 0.7	6.8	–	–	–	–	–	–
CC(=O)Nc1ccc(-c2nc(SCc3cccc(CCC(=O)N4CCC(N5CCCCC5)CC4)n3)nc(N)c2C#N)cc1.Cl [Example 69, N-(4-{6-amino-2-[6-(3-[1,4′]bipiperidinyl-1′-yl-3-oxopropyl)pyridin-2-ylmethylsulfanyl]-5-cyanopyrimidin-4-yl}phenyl)acetamide hydrochloride]	–	–	–	–	–	–	7	−1.5 ± 1.0	−4.9 ± 0.7	−3.6 ± 0.4	−3.8 ± 0.7	−2.6 ± 1.0	0.5 ± 0.9
CCN1CCN(CC2CN(C(=O)CCc3cccc(CSc4nc(N)c(C#N)c(-c5ccc(NC(C)=O)cc5)n4)n3)CCO2)CC1.Cl (centres unmarked) [Example 72, N-{4-[6-amino-5-cyano-2-(6-{3-[2-(4-ethyl-piperazin-1-ylmethyl)morpholin-4-yl]-3-oxopropyl}pyridin-2-ylmethylsulfanyl)pyrimidin-4-yl]phenyl}acetamide hydrochloride]	−1.9 ± 0.6	−5.3 ± 0.6	−4.7 ± 0.6	−5.0 ± 0.7	−4.0 ± 1.0	−1.9 ± 0.9	13.6	–	–	–	–	–	–
CC(=O)Nc1ccc(-c2nc(SCc3cccc(CCC(=O)N4CCN(CCN5CCOCC5)CC4)n3)nc(N)c2C#N)cc1.Cl [Example 78, N-{4-[6-amino-5-cyano-2-(6-{3-[4-(2-morpholin-4-ylethyl)piperazin-1-yl]-3-oxopropyl}pyridin-2-ylmethylsulfanyl)pyrimidin-4-yl]phenyl}acetamide hydrochloride]	0.6 ± 0.5	−3.3 ± 0.4	−4.4 ± 0.6	−4.3 ± 0.9	−5.4 ± 0.7	−3.2 ± 0.9	6	–	–	–	–	–	–
CC(=O)Nc1ccc(-c2nc(SCc3cccc(CCC(=O)N4CCCN(C)CC4)n3)nc(N)c2C#N)cc1.Cl [Example 80, N-[4-(6-amino-5-cyano-2-{6-[3-(4-methyl-[1,4]diazepan-1-yl)-3-oxopropyl]pyridin-2-ylmethyl-sulfanyl}pyrimidin-4-yl)phenyl]acetamide hydrochloride]	−0.9 ± 1.3	−5.0 ± 1.0	−5.9 ± 0.7	−4.9 ± 0.5	−5.0 ± 0.8	−1.8 ± 0.8	2.4	–	–	–	–	–	–
